The structures appear in SMILES notation. pIC50: −log10 of the molar value. Like-named read-outs stand apart in the source and are kept apart here. Bounds are passed on as bounds.

The % inhibition is how much of the control response was suppressed. Low readings indicate little suppression, high ones strong suppression.

For one series, the system named is SK-MEL-28. Description: Anti-proliferative activity, CellTiter-Glo, 72 hours: SK-MEL-28. The class given is cell-based, human. As to conditions: Homo sapiens, SK-MEL-28 (melanoma), Cell-Titre-Glo. As for the experimental part:
(§1) Anti-proliferative activity of BTM compounds. The anti-proliferative activities of Compound A197 and Compound B19 were compared to 4EGI-1 (a known cancer cell growth inhibitor) in a panel of 99 tumor lines. Methods: A panel of 96 tumor and 3 normal cell lines were tested for sensitivity to the test compound. The cell lines were cultured in standard media and pipetted into 96-well plates at the required plating densities. The cells were acclimated for 24 hours prior to compound testing. Compound was prepared as a stock of 20 mM in DMSO. To prepare dose response curves compound was serially diluted in DMSO and dispensed into the plate wells using a Tecan D300e digital dispenser. The final DMSO concentration was 0.15%. After 72 hours of incubation cell number was determined using the CellTiter-Glo® protocol according to the manufacturers instructions (Promega). In this assay, ATP is measured as a surrogate of cell number. The activity of the compound is determined by comparing untreated cells with treated cells and calculating the % of signal retained. Compound activity is measured as an EC50 of maximum level of efficacy and the two are used to compute an activity area. The table below provides a comparison of activity in a data sample.

The test system of another series is LS 174T. Description: Cell viability, CellTiter-Glo, 96 h: LS 174T. The class given is cell-based. The method, then: (§2) Viability was determined by using the 50% inhibitory concentration (IC50) as determined with the CellTiter-Glo® Viability Assay (Promega). All cells were cultured under standard conditions in media supplemented with 10-15% Fetal Bovine Serum, at a temperature of 37° C., 5% CO2 and 95% humidity.
(§3) Cells were harvested during the logarithmic growth period, counted, and the cell concentration adjusted to 4.44×10^4 cells/mL using culture medium. A final cell density of 4×10^3 cells/well was added in a 90 μL cell suspension to plates A and B as shown.
(§4) Test plate B was incubated for 96 h in the humidified incubator at 37° C. with 5% CO2.
(§5) Following the incubation, the plate was equilibrated at room temperature for thirty minutes. CellTiter-Glo® (50 μL) was added to each well of the plate and contents mixed for five minutes on an orbital shaker to induce cell lysis. The luminescent signal was allowed to stabilize at room temperature for 20 minutes and the luminescence recorded.
(§6) IC50 (EC50) was calculated using a dose-response curve, fitted using a nonlinear regression model with a sigmoidal dose response. Survival rate was calculated using the formula:
(§7) The Surviving rate (%)=(LumTest article−LumMedium control)/(LumNon-treated−LumMedium control)×100%.
(§8) Absolute IC50 (EC50) was calculated according to the dose-response curve generated by the statistical software (GraphPad Prism 5.0).
In general terms: ATP-based viability assays read luminescence as a measure of living cells.

The next series concerns HK-2. Description: Anti-proliferative activity, CellTiter-Glo, 72 hours: HK-2. The settings on record: Homo sapiens, HK-2 (kidney epilithial), Cell-Titre-Glo. The class given is cell-based, human. As for the experimental part:
as §1

Another series concerns SU-DHL-6. Description: Anti-proliferative activity, CellTiter-Glo, 72 hours: SU-DHL-6. The class given is cell-based, human. As to conditions: Homo sapiens, SU-DHL-6 (B-cell lymphoma), Cell-Titre-Glo. The method, then:
as §1

The test system of a further series is MIA PaCa-2. Description: Anti-proliferative activity, CellTiter-Glo, 72 hours: MIA PaCa-2. The class given is cell-based, human. The settings on record: Homo sapiens, MIA PaCa-2 (pancreactic cancer (carcinoma)), Cell-Titre-Glo. The method, then:
as §1

For another series, the system named is HUVEC. Description: Anti-proliferative activity, CellTiter-Glo, 72 hours: HUVEC. As to conditions: Homo sapiens, HUVEC (primary endolithial cells), Cell-Titre-Glo. The series is classed as cell-based, human. As for the experimental part:
as §1

The next series has as its system D283 Med. Description: Cell viability, CellTiter-Glo, 96 h: D283 Med. The series is classed as cell-based. The settings on record: for pIC50: read-out: Absolute IC50. The method, then: as §2, §3, §4, §5, §6, §7, §8
In a further series the test system is LoVo. Description: Anti-proliferative activity, CellTiter-Glo, 72 hours: LoVo. The class given is cell-based, human. As to conditions: Homo sapiens, LoVo (colorectal cancer), Cell-Titre-Glo. The method, then:
as §1

For the next series, the system named is A549. Description: Anti-proliferative activity, CellTiter-Glo, 72 hours: A549. As to conditions: Homo sapiens, A549 (non-small cell lung cancer), Cell-Titre-Glo. The series is classed as cell-based, human. As for the experimental part:
as §1

For the next series, the system named is NHLF. Description: Anti-proliferative activity, CellTiter-Glo, 72 hours: NHLF. The series is classed as cell-based. The settings on record: NHLF (human lung fibroblast), Cell-Titre-Glo. The method, then:
as §1

Another series has as its system 143B. Description: Cell viability, CellTiter-Glo, 96 h: 143B. The class given is cell-based. The settings on record: for pIC50: read-out: Absolute IC50. The method, then:
as §2, §3, §4, §5, §6, §7, §8

The test system of series [1] is panel of 96 tumor and 3 normal cell lines. Description: Anti-proliferative activity in a panel of 99 cell lines, CellTiter-Glo, 72 hours. The class given is cell-based, human. The settings on record: for pIC50: Homo sapiens, in responsive cell lines, read-out: activity range; for % of hematopoietic tumor lines being responsive / % of solid tumor lines being responsive: IC50<2 μM; for active in % of the tested cell lines (IC50<2 μM): all tested cell lines; for % of NSCLC tumor lines responsive / % of colorectal tumor lines responsive / % of sarcoma tumor lines responsive: among solid tumor lines; for activity in primary diploid cell lines: e.g. human umbilical vein endothelial cells and normal human lung fibroblasts (NHLF). As for the experimental part:
as §1

In another series the test system is SU-DHL-10. Description: Anti-proliferative activity, CellTiter-Glo, 72 hours: SU-DHL-10. The class given is cell-based, human. The settings on record: Homo sapiens, SU-DHL10, SU-DHL-10 (B-cell lymphoma), Cell-Titre-Glo. The method, then: as §1
Series [2] can be described thus: Single rising-dose mouse pharmacokinetics (PK) experiment. The class given is in vivo, CD-1 mice. The settings on record: for PK properties: mouse PK data. The method, then:
FIG. 9 is a graph of mouse pharmacokinetics of a single rising dose PK of Compound A197 in female CD-1 mice. Compound was administered orally with the indicated dose. Blood was drawn by tail-bleed at the appropriate times and Compound A197 plasma levels determined by LC-MS. All values, mean±SD (n=3 mice per group).
A single rising-dose mouse pharmacokinetics (PK) experiment was performed at PGP-52 TI 10, 20, 40, 150 and 300 mg/kg Compound A197. Female CD-1 mice (20-30 grams in weight) were dosed by oral gavage or by intravenous injection with A197 dissolved in 1% NMP, 0.3% Tween-80 in 0.5% methylcellulose at a dose volume of 10 ml/kg. Following compound dosing, blood was collected by tail vein bleed into K2EDTA tubes at 30 minutes, 1, 3, 5, 7, 24 an 48 hrs following dosing. Plasma (5 μL) from A197 dosed animals was acidified with […] and 1% ammonium formate in methanol to precipitate protein and delipidate plasma. The material was centrifuged at 1000× and a 120 μL sample of the supernatant was then dried under vacuum. The deproteinated and delipidated residue was resuspended in 200 μL of 1% ammonium formate in methanol and the centrifugation and drying process repeated. The dried material is then resuspended in 100 μL of a mixture of 2 parts methanol: 1 part acetonitrile: 1 part water. A 10 μL sample of this material is then injected onto a Xbridge C18 2.5 μM, 3×30 mm, XP column attached to a TSQ Vantage LC/MS system for quantitation.

In a further series the test system is MDA-MB-231. Description: Anti-proliferative activity, CellTiter-Glo, 72 hours: MDA-MB-231. The series is classed as cell-based, human. The settings on record: Homo sapiens, MDA-MB-231 (breast cancer), Cell-Titre-Glo. As for the experimental part:
as §1

The mark [3] stands for this setting: Cell No. 407, read-out: Absolute IC50.

Turning to `Cc1nn(-c2nc(-c3ccc(C(F)(F)F)cc3)c(SC(C)C)s2)c(C(=O)O)c1-c1cccc(F)c1` [Compound A197, 4-(3-fluorophenyl)-1-(5-(isopropylthio)-4-(4-(trifluoromethyl)phenyl)thiazol-2-yl)-3-methyl-1H-pyrazole-5-carboxylic acid], the pIC50 in the series with SK-MEL-28 was less than 4.52; with LS 174T (setting [3]) it was less than 4.52; in the series with LS 174T (Homo sapiens, LS174T, Cell No. 406, read-out: Absolute IC50), less than 4.52; in the series on HK-2 it was less than 4.52; in the series on SU-DHL-6, 6.28; in the series on MIA PaCa-2, 6.21. The pIC50 in the series with HUVEC is less than 4.52; in the series with D283 Med (Homo sapiens), less than 4.52; with LoVo, 6.91; in the series on A549 it was 6.51; with NHLF, less than 4.52; in the series with 143B (Homo sapiens), less than 4.52. Moreover, the results for the pIC50 (in series [1]; in the series with SU-DHL-10; in the series with MDA-MB-231) were 5.70 to 7.00, 6.87 and less than 4.52, respectively. The “% inhibition at top conc.” value worked out at 15.79% in the series on LS 174T (Cell No. 406), 27.00% in the series with LS 174T (Cell No. 407), 66.67% in the series with D283 Med and 27.55% with 143B. In [1], the “% of hematopoietic tumor lines being responsive” value stood at 90%. For the same compound, the “% of solid tumor lines being responsive” value in series [1] is listed as 28%. Further, in series [1], the “active in % of the tested cell lines (IC50<2 μM)” value turned out to be 40%. Further, the “% of NSCLC tumor lines responsive” value in series [1] came out at 80%. For the same compound, the “% of colorectal tumor lines responsive” value in series [1] worked out at 37%. Moreover, in [1], the “% of sarcoma tumor lines responsive” value was 40%. The “activity in primary diploid cell lines” value in series [1] is “tested negative”. Further, the PK properties entry in series [2] is recorded as “drug-like PK properties suitable for once daily dosing”. In series [2] (single rising dose 10, 20, 40, 150 and 300 mg/kg, oral, female CD-1 mice, plasma by LC/MS), the dose proportionality result is “dose proportionality was observed up to 300 mg/kg”.

Take `COC(=O)c1c(-c2cccc(F)c2)c(C)nn1-c1nc(C2=CCC(C(F)(F)F)CC2)c(SC(C)C)s1` (single isomer, unassigned) [Compound B19, methyl 4-(3-fluorophenyl)-1-(5-(isopropylthio)-4-(4-(trifluoromethyl)cyclohex-1-en-1-yl)thiazol-2-yl)-3-methyl-1H-pyrazole-5-carboxylate]: the pIC50 in the series on SK-MEL-28 was less than 4.52; in the series on HK-2, less than 4.52; with SU-DHL-6, 6.27; in the series on MIA PaCa-2, 6.35; in the series with HUVEC, less than 4.52; in the series on LoVo, 6.94. For the same compound, the pIC50 is 6.72 with A549; less than 4.52 with NHLF; 5.70 to 7.00 in [1]; 6.92 in the series on SU-DHL-10; less than 4.52 in the series on MDA-MB-231. In series [1], the “% of hematopoietic tumor lines being responsive” value was 90%. In addition, in series [1], the “% of solid tumor lines being responsive” value came out at 28%. Further, the “active in % of the tested cell lines (IC50<2 μM)” value in series [1] was 40%. The “% of NSCLC tumor lines responsive” value in series [1] is given as 80%. In addition, in series [1], the “% of colorectal tumor lines responsive” value was determined as 37%. Besides, the “% of sarcoma tumor lines responsive” value in series [1] is listed as 40%. Besides, the “activity in primary diploid cell lines” value in [1] is “tested negative”. In addition, the PK properties entry in series [2] was “drug-like PK properties suitable for once daily dosing”.

Take `N.N.[Cl][Pt][Cl]` [Cisplatin, reference compound]: the “% inhibition at top conc.” value with LS 174T (Cell No. 406) stood at 96.60%; in the series on LS 174T (Cell No. 407), 96.74%; in the series on D283 Med it was 99.39%; in the series on 143B it was 99.94%. Also, the pIC50 in the series on LS 174T (Cell No. 406, read-out: Absolute IC50) is 5.23; with LS 174T (setting [3]) it was 5.07; in the series with D283 Med it was 6.15; with 143B, 5.49.

The values are drawn from patent US20210278408A1, “METHODS OF TREATMENT OF CANCER WITH SUBSTITUTED PYRROLE AND PYRAZOLE COMPOUNDS AND DIAGNOSIS OF CANCERS SUSCEPTIBLE TO TREATMENT WITH SUBSTITUTED PYRROLE AND PYRAZOLE COMPOUNDS” (Bantam Pharmaceutical, LLC, priority 2018, published 2021).
